Laboratory results reported in publication PMC5218480 (PLoS ONE, 2017).

System: MV-4-11 cells
Test: Gene expression microarray analysis (Affymetrix PrimeView) and GSEA
Format: cell-based, human
Parameters: RFU PODN (11730768_x_at) / Fold change /veh PODN (11730768_x_at) / RFU LINC00158 (11744669_a_at) / Fold change /veh LINC00158 (11744669_a_at) / RFU DUSP10 (11751237_a_at) / Fold change /veh DUSP10 (11751237_a_at) / RFU ID3 (11757404_x_at) / Fold change /veh ID3 (11757404_x_at) / RFU PLEKHG5 (11737974_s_at) / Fold change /veh PLEKHG5 (11737974_s_at) / RFU LRRC4B (11730491_at) / Fold change /veh LRRC4B (11730491_at) / RFU GIMAP4 (11747438_a_at) / Fold change /veh GIMAP4 (11747438_a_at) / RFU KRT8 (11758183_x_at) / Fold change /veh KRT8 (11758183_x_at) / RFU CNN1 (11734310_a_at) / Fold change /veh CNN1 (11734310_a_at) / RFU VPS37D (11726825_at) / Fold change /veh VPS37D (11726825_at) / RFU C10orf10 (11716522_x_at) / Fold change /veh C10orf10 (11716522_x_at) / RFU KIR2DL2 /// KIR2DL4 /// KIR2DL5A /// KIR2DL5B /// KIR2DS1 /// KIR2DS2 /// KIR2DS3 /// KIR2DS4 /// KIR3DL3 /// KIR3DL3 /// KIR3DS1 (11738374_at) / Fold change /veh KIR2DL2 /// KIR2DL4 /// KIR2DL5A /// KIR2DL5B /// KIR2DS1 /// KIR2DS2 /// KIR2DS3 /// KIR2DS4 /// KIR3DL3 /// KIR3DL3 /// KIR3DS1 (11738374_at) / RFU C1QL1 (11718748_at) / Fold change /veh C1QL1 (11718748_at) / RFU TMPRSS4 (11747572_a_at) / Fold change /veh TMPRSS4 (11747572_a_at) / RFU HAMP (11756126_x_at) / Fold change /veh HAMP (11756126_x_at) / RFU RNFT2 (11725882_a_at) / Fold change /veh RNFT2 (11725882_a_at) / RFU NR4A2 (11747474_a_at) / Fold change /veh NR4A2 (11747474_a_at) / RFU ABCC12 (11746883_a_at) / Fold change /veh ABCC12 (11746883_a_at) / RFU TMEM136 (11760407_x_at) / Fold change /veh TMEM136 (11760407_x_at) / RFU CLDN22 /// WWC2 (11732394_at) / Fold change /veh CLDN22 /// WWC2 (11732394_at) / RFU HLA-DPB1 (11760878_x_at) / Fold change /veh HLA-DPB1 (11760878_x_at) / RFU SPINT1 (11716480_a_at) / Fold change /veh SPINT1 (11716480_a_at) / RFU GAP43 (11754022_s_at) / Fold change /veh GAP43 (11754022_s_at) / RFU A4GNT (11735810_at) / Fold change /veh A4GNT (11735810_at) / RFU PRB3 (11715151_x_at) / Fold change /veh PRB3 (11715151_x_at) / RFU TUBB4B (11761932_at) / Fold change /veh TUBB4B (11761932_at) / RFU CAPN14 (11732068_a_at) / Fold change /veh CAPN14 (11732068_a_at) / RFU TMCC2 (11721928_a_at) / Fold change /veh TMCC2 (11721928_a_at) / RFU IRGQ (11745062_a_at) / Fold change /veh IRGQ (11745062_a_at) / RFU FAM174B (11720279_a_at) / Fold change /veh FAM174B (11720279_a_at) / RFU TMPRSS4 (11748680_a_at) / Fold change /veh TMPRSS4 (11748680_a_at) / RFU FAM212B (11763350_a_at) / Fold change /veh FAM212B (11763350_a_at) / RFU PLEKHG5 (11743358_a_at) / Fold change /veh PLEKHG5 (11743358_a_at) / RFU ZSCAN30 (11745921_a_at) / Fold change /veh ZSCAN30 (11745921_a_at) / RFU CMKLR1 (11741424_a_at) / Fold change /veh CMKLR1 (11741424_a_at) / RFU LOC101060620 /// MAPK8IP1 (11723275_at) / Fold change /veh LOC101060620 /// MAPK8IP1 (11723275_at) / RFU SPTSSB (11747773_x_at) / Fold change /veh SPTSSB (11747773_x_at) / RFU PRSS12 (11739890_at) / Fold change /veh PRSS12 (11739890_at) / RFU BIN1 (11741810_x_at) / Fold change /veh BIN1 (11741810_x_at) / RFU WNT11 (11732464_a_at) / Fold change /veh WNT11 (11732464_a_at) / RFU C10orf10 (11716521_a_at) / Fold change /veh C10orf10 (11716521_a_at) / RFU C5orf56 (11738089_at) / Fold change /veh C5orf56 (11738089_at) / RFU CYB561 (11721691_x_at) / Fold change /veh CYB561 (11721691_x_at) / RFU ANKRD19P (11752326_a_at) / Fold change /veh ANKRD19P (11752326_a_at) / RFU OR2T12 /// OR2T33 /// OR2T8 (11738714_s_at) / Fold change /veh OR2T12 /// OR2T33 /// OR2T8 (11738714_s_at) / RFU VCAN (11748164_a_at) / Fold change /veh VCAN (11748164_a_at) / RFU JSRP1 (11732532_at) / Fold change /veh JSRP1 (11732532_at) / RFU KRTAP10-11 (11738290_x_at) / Fold change /veh KRTAP10-11 (11738290_x_at) / RFU MYO3A (11730013_a_at) / Fold change /veh MYO3A (11730013_a_at) / RFU EBF3 (11725865_a_at) / Fold change /veh EBF3 (11725865_a_at) / RFU CAMK2N1 (11719241_x_at) / Fold change /veh CAMK2N1 (11719241_x_at) / RFU C5orf56 (11738088_a_at) / Fold change /veh C5orf56 (11738088_a_at) / RFU OLFML3 (11715873_a_at) / Fold change /veh OLFML3 (11715873_a_at) / RFU LOC100653217 /// NTM (11731650_a_at) / Fold change /veh LOC100653217 /// NTM (11731650_a_at) / RFU MAPK11 (11762145_a_at) / Fold change /veh MAPK11 (11762145_a_at) / RFU FIZ1 (11724087_x_at) / Fold change /veh FIZ1 (11724087_x_at) / RFU OASL (11726364_x_at) / Fold change /veh OASL (11726364_x_at) / RFU SOX15 (11748057_x_at) / Fold change /veh SOX15 (11748057_x_at) / RFU CD79A (11719716_a_at) / Fold change /veh CD79A (11719716_a_at) / RFU HIST1H1D (11736915_at) / Fold change /veh HIST1H1D (11736915_at) / RFU CASKIN2 (11723855_a_at) / Fold change /veh CASKIN2 (11723855_a_at) / RFU LOC730098 (11760151_x_at) / Fold change /veh LOC730098 (11760151_x_at) / RFU OR4N2 (11742367_at) / Fold change /veh OR4N2 (11742367_at) / RFU PRRT2 (11749266_a_at) / Fold change /veh PRRT2 (11749266_a_at) / RFU SNX32 (11753110_a_at) / Fold change /veh SNX32 (11753110_a_at) / RFU CDHR5 (11726645_a_at) / Fold change /veh CDHR5 (11726645_a_at) / RFU RCAN1 (11760418_a_at) / Fold change /veh RCAN1 (11760418_a_at) / RFU FAM167A (11723789_a_at) / Fold change /veh FAM167A (11723789_a_at) / RFU FAM26E (11764081_at) / Fold change /veh FAM26E (11764081_at) / RFU ISYNA1 (11749810_s_at) / Fold change /veh ISYNA1 (11749810_s_at) / RFU ACY1 (11761880_at) / Fold change /veh ACY1 (11761880_at) / RFU 11764098_at / Fold change /veh 11764098_at / RFU SAMD14 (11745864_x_at) / Fold change /veh SAMD14 (11745864_x_at) / RFU NPB (11741838_a_at) / Fold change /veh NPB (11741838_a_at) / RFU TMPRSS6 (11731388_a_at) / Fold change /veh TMPRSS6 (11731388_a_at) / RFU KRTAP10-2 (11738614_at) / Fold change /veh KRTAP10-2 (11738614_at) / RFU ARHGAP8 /// PRR5-ARHGAP8 (11727945_x_at) / Fold change /veh ARHGAP8 /// PRR5-ARHGAP8 (11727945_x_at) / RFU KRTAP5-7 /// NADSYN1 (11734609_at) / Fold change /veh KRTAP5-7 /// NADSYN1 (11734609_at) / RFU RASL12 (11751679_a_at) / Fold change /veh RASL12 (11751679_a_at) / RFU CDKN2B (11736163_a_at) / Fold change /veh CDKN2B (11736163_a_at) / RFU PRF1 (11729649_at) / Fold change /veh PRF1 (11729649_at) / RFU, ZNF638 /// ZNF638-IT1 / Fold change vs veh, ZNF638 /// ZNF638-IT1 / RFU, PANK3 / Fold change vs veh, PANK3 / RFU, SH3YL1 / Fold change vs veh, SH3YL1 / RFU, ZEB2 / Fold change vs veh, ZEB2 / RFU, NRIP1 / Fold change vs veh, NRIP1 / RFU, PTTG1IP / Fold change vs veh, PTTG1IP / RFU, CAPN2 / Fold change vs veh, CAPN2 / RFU, MED14 / Fold change vs veh, MED14 / RFU, SNORA58 / Fold change vs veh, SNORA58 / RFU, C1orf63 / Fold change vs veh, C1orf63 / RFU, LRRFIP1 / Fold change vs veh, LRRFIP1 / RFU, NDUFAF7 / Fold change vs veh, NDUFAF7 / RFU, SLC12A2 / Fold change vs veh, SLC12A2 / RFU, IBTK / Fold change vs veh, IBTK / RFU, ESF1 / Fold change vs veh, ESF1 / Fold change vs veh, TMEM50B / RFU, TAOK1 / Fold change vs veh, TAOK1 / RFU, ACBD3 / Fold change vs veh, ACBD3 / RFU, TMA16 / Fold change vs veh, TMA16 / RFU, RWDD3 / Fold change vs veh, RWDD3 / RFU, BCAT1 / Fold change vs veh, BCAT1 / RFU, EDEM3 / Fold change vs veh, EDEM3 / RFU, TMEM33 / Fold change vs veh, TMEM33 / RFU, WDR75 / Fold change vs veh, WDR75 / RFU, AHCTF1 / Fold change vs veh, AHCTF1 / RFU, TFRC / Fold change vs veh, TFRC / RFU, ZDHHC17 / Fold change vs veh, ZDHHC17 / RFU, NOM1 / Fold change vs veh, NOM1 / RFU, ARL8B / Fold change vs veh, ARL8B / RFU, ZBTB11 / Fold change vs veh, ZBTB11 / RFU, TAMM41 / Fold change vs veh, TAMM41 / RFU, KIAA1704 /// LOC100996395 / Fold change vs veh, KIAA1704 /// LOC100996395 / RFU, ING1 / Fold change vs veh, ING1 / RFU, TRMT61B / Fold change vs veh, TRMT61B / RFU, FUBP3 / Fold change vs veh, FUBP3 / RFU, TP53 / Fold change vs veh, TP53 / RFU, TNKS2 / Fold change vs veh, TNKS2 / RFU, ZFP14 / Fold change vs veh, ZFP14 / RFU, ACTR2 / Fold change vs veh, ACTR2 / RFU, PPP3R1 / Fold change vs veh, PPP3R1 / RFU, PIK3R1 / Fold change vs veh, PIK3R1 / RFU, HNRNPA1 / Fold change vs veh, HNRNPA1 / RFU, RNF170 / Fold change vs veh, RNF170 / RFU, ZNF28 / Fold change vs veh, ZNF28 / RFU, RNGTT / Fold change vs veh, RNGTT / RFU, OGT / Fold change vs veh, OGT / RFU, BRD1 / Fold change vs veh, BRD1 / RFU, MARS / Fold change vs veh, MARS / RFU, ZNF655 / Fold change vs veh, ZNF655 / RFU, FAHD1 / Fold change vs veh, FAHD1 / RFU, BDP1 / Fold change vs veh, BDP1 / RFU, LRRCC1 / Fold change vs veh, LRRCC1 / RFU, ARID1A / Fold change vs veh, ARID1A / RFU, ZNF146 / Fold change vs veh, ZNF146 / RFU, ZNF330 / Fold change vs veh, ZNF330 / RFU, GPN3 / Fold change vs veh, GPN3 / RFU, C9orf123 / Fold change vs veh, C9orf123 / RFU, N4BP2L2 / Fold change vs veh, N4BP2L2 / RFU, ARFIP1 / Fold change vs veh, ARFIP1 / RFU, FAM179B / Fold change vs veh, FAM179B / RFU, BCL10 / Fold change vs veh, BCL10 / RFU, UHRF1BP1L / Fold change vs veh, UHRF1BP1L / RFU, BET1 / Fold change vs veh, BET1 / RFU, CNOT2 / Fold change vs veh, CNOT2 / RFU, ZNF268 / Fold change vs veh, ZNF268 / Fold change vs veh, ZNF507 / RFU, DGCR2 / Fold change vs veh, DGCR2 / RFU, WDSUB1 / Fold change vs veh, WDSUB1 / Fold change vs veh, HSP90B1 /// MIR3652 / RFU, ADSS / Fold change vs veh, ADSS / RFU, GK / Fold change vs veh, GK / RFU, ZNF148 / Fold change vs veh, ZNF148 / RFU, TAF9 / Fold change vs veh, TAF9 / RFU, SLC1A5 / Fold change vs veh, SLC1A5 / RFU, SLMO2 / Fold change vs veh, SLMO2 / RFU, ABCC4 / Fold change vs veh, ABCC4 / RFU, LOC101060439 /// RAP1B / Fold change vs veh, LOC101060439 /// RAP1B / RFU, RFX7 / Fold change vs veh, RFX7 / RFU, GTPBP10 / Fold change vs veh, GTPBP10 / RFU, CNEP1R1 / Fold change vs veh, CNEP1R1 / RFU, BIVM-ERCC5 /// ERCC5 / Fold change vs veh, BIVM-ERCC5 /// ERCC5 / RFU, ILF3 / Fold change vs veh, ILF3 / RFU 11762660_at / Fold change /veh 11762660_at / RFU VCAN (11757783_s_at) / Fold change /veh VCAN (11757783_s_at) / RFU DDX43 (11728927_at) / Fold change /veh DDX43 (11728927_at) / RFU KRT8 (11758188_x_at) / Fold change /veh KRT8 (11758188_x_at) / RFU NKD1 (11759106_at) / Fold change /veh NKD1 (11759106_at) / RFU SRD5A1 (11742802_a_at) / Fold change /veh SRD5A1 (11742802_a_at) / RFU TPSAB1 /// TPSB2 (11721975_s_at) / Fold change /veh TPSAB1 /// TPSB2 (11721975_s_at) / RFU GSTM3 (11746129_a_at) / Fold change /veh GSTM3 (11746129_a_at) / RFU IL23R (11737362_x_at) / Fold change /veh IL23R (11737362_x_at) / RFU TMEM51 (11727254_a_at) / Fold change /veh TMEM51 (11727254_a_at) / RFU PIWIL2 (11732686_x_at) / Fold change /veh PIWIL2 (11732686_x_at) / RFU ORM1 (11744905_x_at) / Fold change /veh ORM1 (11744905_x_at) / RFU CCDC152 (11743942_at) / Fold change /veh CCDC152 (11743942_at) / RFU ECM1 (11717891_a_at) / Fold change /veh ECM1 (11717891_a_at) / RFU IL23R (11748794_a_at) / Fold change /veh IL23R (11748794_a_at) / RFU TNFAIP8L3 (11732012_x_at) / Fold change /veh TNFAIP8L3 (11732012_x_at) / RFU MBOAT4 (11741988_at) / Fold change /veh MBOAT4 (11741988_at) / RFU 11764193_at / Fold change /veh 11764193_at / RFU TMEM53 (11763286_at) / Fold change /veh TMEM53 (11763286_at) / RFU MAGEB2 (11727129_at) / Fold change /veh MAGEB2 (11727129_at) / RFU TMEM200A (11744735_a_at) / Fold change /veh TMEM200A (11744735_a_at) / RFU CCDC152 (11751479_a_at) / Fold change /veh CCDC152 (11751479_a_at) / RFU FAM211A (11726209_a_at) / Fold change /veh FAM211A (11726209_a_at) / RFU RGS16 (11746705_a_at) / Fold change /veh RGS16 (11746705_a_at) / RFU VCAN (11755009_s_at) / Fold change /veh VCAN (11755009_s_at) / RFU RHOB (11743442_s_at) / Fold change /veh RHOB (11743442_s_at) / RFU RGS16 (11720943_a_at) / Fold change /veh RGS16 (11720943_a_at) / RFU RGS16 (11720944_at) / Fold change /veh RGS16 (11720944_at) / RFU, VPS4B / Fold change vs veh, VPS4B / RFU, CREB1 / Fold change vs veh, CREB1 / RFU, DNAJC13 / Fold change vs veh, DNAJC13 / RFU, GNAQ / Fold change vs veh, GNAQ / RFU, CDK5R1 / Fold change vs veh, CDK5R1 / RFU, ZRANB3 / Fold change vs veh, ZRANB3 / RFU, CUL4A / Fold change vs veh, CUL4A / RFU, CCNY / Fold change vs veh, CCNY / RFU, UFL1 / Fold change vs veh, UFL1 / RFU, COG3 / Fold change vs veh, COG3 / RFU, DIAPH2 / Fold change vs veh, DIAPH2 / RFU, SKA2 / Fold change vs veh, SKA2 / RFU, AFF3 / Fold change vs veh, AFF3 / RFU, LMF1 / Fold change vs veh, LMF1 / RFU, IPO11 / Fold change vs veh, IPO11 / RFU, DFFB / Fold change vs veh, DFFB / RFU, FOXP1 / Fold change vs veh, FOXP1 / RFU, CARD8 / Fold change vs veh, CARD8 / RFU, STRN3 / Fold change vs veh, STRN3 / RFU, ADK / Fold change vs veh, ADK / RFU, RASSF2 / Fold change vs veh, RASSF2 / RFU, WIPF1 / Fold change vs veh, WIPF1 / RFU, LARP1B / Fold change vs veh, LARP1B / RFU, RASA1 / Fold change vs veh, RASA1 / RFU, RB1 / Fold change vs veh, RB1 / RFU, PPFIA1 / Fold change vs veh, PPFIA1 / RFU, MAT2A / Fold change vs veh, MAT2A / RFU, CCT5 / Fold change vs veh, CCT5 / RFU, WDR92 / Fold change vs veh, WDR92 / RFU, CUX1 / Fold change vs veh, CUX1 / RFU, TTC7A / Fold change vs veh, TTC7A / RFU, TMEM135 / Fold change vs veh, TMEM135 / RFU, DEPTOR / Fold change vs veh, DEPTOR / RFU, CPM / Fold change vs veh, CPM / RFU, DNAJB6 / Fold change vs veh, DNAJB6 / RFU, CACNA2D3 / Fold change vs veh, CACNA2D3 / RFU, DTX4 / Fold change vs veh, DTX4 / RFU, TFCP2 / Fold change vs veh, TFCP2 / RFU, GMCL1 /// GMCL1P1 / Fold change vs veh, GMCL1 /// GMCL1P1 / RFU, AEBP2 / Fold change vs veh, AEBP2 / RFU, SNHG1 /// SNORD22 /// SNORD25 /// SNORD26 /// SNORD27 /// SNORD28 /// SNORD29 /// SNORD31 / Fold change vs veh, SNHG1 /// SNORD22 /// SNORD25 /// SNORD26 /// SNORD27 /// SNORD28 /// SNORD29 /// SNORD31 / Fold change (Aza/veh), C12orf56 (ProbeSet 11735607_a_at) / Fold change (ACY-1035/veh), C12orf56 (ProbeSet 11735607_a_at) / Fold change (Aza/veh), FGFR1OP (ProbeSet 11751329_s_at) / Fold change (ACY-1035/veh), FGFR1OP (ProbeSet 11751329_s_at) / Fold change (Aza/veh), VPS36 (ProbeSet 11739960_a_at) / Fold change (ACY-1035/veh), VPS36 (ProbeSet 11739960_a_at) / RFU SYPL1 (11715823_x_at) / Fold change /veh SYPL1 (11715823_x_at) / RFU IGFBP7 (11715501_s_at) / Fold change /veh IGFBP7 (11715501_s_at) / RFU REEP3 (11722064_at) / Fold change /veh REEP3 (11722064_at) / RFU IGLL1 (11728026_x_at) / Fold change /veh IGLL1 (11728026_x_at): dose or concentration left out as unconfirmed
Conditions: MV-4-11 cells, 48 hours

Which “RFU PRSS12 (11739890_at)” value does the source give for `Nc1ncn([C@@H]2O[C@H](CO)[C@@H](O)[C@H]2O)c(=O)n1` [azacitidine] here?
The value was 6.78 RFU.
